Results from patent US20180111893A1, “POLYCATIONIC AMPHIPHILES AND POLYMERS THEREOF AS ANTIMICROBIAL AGENTS AND METHODS USING SAME” (Temple University-Of The Commonwealth System of Higher …, priority 2015, published 2018).

Tested on: Staphylococcus aureus (SA; MSSA SH1000)
Test: Minimum inhibitory concentration (MIC)
Assay type: cell-based
Details: Table 6
Experimental: (§1) As used herein, the term “minimum inhibitory concentration (MIC)” refers to the lowest concentration of an antimicrobial agent that will inhibit the visible growth of a microorganism after overnight incubation. MIC values against bacteria, for example, the Gram-positive Staphylococcus aureus and Enterococcus faecalis and the Gram-negative Escherichia coli and Pseudomonas aeruginosa were determined by standard methods. See also P. A. Wayne, Methods for Dilution Antimicrobial Tests for Bacteria that Grow Aerobically; Approved Standard, Ninth Edition, 2012, CLSI Document M07-A9, Vol. 32 No. 2, which is incorporated by reference herein in its entirety.
(§2) Compounds were serially diluted two-fold from a 10% DMSO/aqueous stock solution to yield twelve test concentrations. Overnight S. aureus, E. faecalis, E. coli, P. aeruginosa, CA-MRSA, and HA-MRSA cultures diluted to ca. 10^6 cfu/mL in Mueller-Hinton media and 100 μL were inoculated into each well of a U-bottom 96-well plate (BD Biosciences, BD351177) containing 100 μL of compound solution. Plates were incubated statically at 37° C. for 72 hours upon which time wells were evaluated visually for bacterial growth. The MIC was determined as the lowest concentration of compound resulting in no bacterial growth visible to the naked eye, based on the majority of three independent experiments. Positive and negative DMSO/aqueous solution and media controls were conducted for each trial. See Peng et al., 2011, Chem. Comm. 47:4896-4898.
as §2, with “trial.” for “trial. See Peng et al., 2011, Chem. Comm. 47:4896-4898.”

First: CCCCCCCC[N+](C)(C)CCCN(CCC[N+](C)(C)CCCCCCCC)CCC[N+](C)(C)CCCCCCCC [sT-8,8,8,0]
Second: CCCCCCCCCC[N+](C)(C)CCCN(CCC[N+](C)(C)CCCCCCCCCC)CCC[N+](C)(C)CCCCCCCCCC [sT-10,10,10,0]
The “MIC SA” value of the first is 8-fold higher: 4 µM for the first, 0.5 µM for the second.

CCCCCCCC[N+](C)(C)CCC[N+](C)(CCC[N+](C)(C)CCCCCCCC)CCC[N+](C)(C)CCCCCCCC [sT-8,8,8,1] and CCCCCCCCCC[N+](C)(C)CCC[N+](C)(CCC[N+](C)(C)CCCCCCCCCC)CCC[N+](C)(C)CCCCCCCCCC [sT-10,10,10,1] are the same in “MIC SA” value: 0.5 µM for the first, 0.5 µM for the second.

Going from C=CC[N+](CCC[N+](C)(C)CCCCCCCC)(CCC[N+](C)(C)CCCCCCCC)CCC[N+](C)(C)CCCCCCCC [sT-8,8,8,3A] to C=CC[N+](CCC[N+](C)(C)CCCCCCCCCC)(CCC[N+](C)(C)CCCCCCCCCC)CCC[N+](C)(C)CCCCCCCCCC [sT-10,10,10,3A], the “MIC SA” value falls from 1 µM to 0.5 µM (2-fold).

Tested on: community-acquired methicillin-resistant Staphylococcus aureus CA-MRSA (USA300-0114)
Test: Minimum inhibitory concentration (MIC)
Assay type: cell-based
Details: Table 6
Experimental: as §1, §2
as §2, with “trial.” for “trial. See Peng et al., 2011, Chem. Comm. 47:4896-4898.”

Compared with CCCCCCCC[N+](C)(C)CCCN(CCC[N+](C)(C)CCCCCCCC)CCC[N+](C)(C)CCCCCCCC [sT-8,8,8,0], CCCCCCCCCC[N+](C)(C)CCCN(CCC[N+](C)(C)CCCCCCCCCC)CCC[N+](C)(C)CCCCCCCCCC [sT-10,10,10,0] is 4-fold lower in “MIC CA-MRSA” value: 2 µM for the first, 0.5 µM for the second.

Going from CCCCCCCC[N+](C)(C)CCC[N+](C)(CCC[N+](C)(C)CCCCCCCC)CCC[N+](C)(C)CCCCCCCC [sT-8,8,8,1] to CCCCCCCCCC[N+](C)(C)CCC[N+](C)(CCC[N+](C)(C)CCCCCCCCCC)CCC[N+](C)(C)CCCCCCCCCC [sT-10,10,10,1], the “MIC CA-MRSA” value falls from 1 µM to 0.5 µM (2-fold).

Going from C=CC[N+](CCC[N+](C)(C)CCCCCCCC)(CCC[N+](C)(C)CCCCCCCC)CCC[N+](C)(C)CCCCCCCC [sT-8,8,8,3A] to C=CC[N+](CCC[N+](C)(C)CCCCCCCCCC)(CCC[N+](C)(C)CCCCCCCCCC)CCC[N+](C)(C)CCCCCCCCCC [sT-10,10,10,3A], the “MIC CA-MRSA” value falls from 1 µM to 0.25 µM (4-fold).

Tested on: Enterococcus faecalis (OG1RF)
Test: Minimum inhibitory concentration (MIC)
Assay type: cell-based
Details: Table 6
Experimental: as §1, §2
as §2, with “trial.” for “trial. See Peng et al., 2011, Chem. Comm. 47:4896-4898.”

Compared with CCCCCCCC[N+](C)(C)CCCN(CCC[N+](C)(C)CCCCCCCC)CCC[N+](C)(C)CCCCCCCC [sT-8,8,8,0], CCCCCCCCCC[N+](C)(C)CCCN(CCC[N+](C)(C)CCCCCCCCCC)CCC[N+](C)(C)CCCCCCCCCC [sT-10,10,10,0] is 64-fold lower in “MIC EF” value: 32 µM for the first, 0.5 µM for the second.

Compared with CCCCCCCC[N+](C)(C)CCC[N+](C)(CCC[N+](C)(C)CCCCCCCC)CCC[N+](C)(C)CCCCCCCC [sT-8,8,8,1], CCCCCCCCCC[N+](C)(C)CCC[N+](C)(CCC[N+](C)(C)CCCCCCCCCC)CCC[N+](C)(C)CCCCCCCCCC [sT-10,10,10,1] is 32-fold lower in “MIC EF” value: 16 µM for the first, 0.5 µM for the second.

First: C=CC[N+](CCC[N+](C)(C)CCCCCCCC)(CCC[N+](C)(C)CCCCCCCC)CCC[N+](C)(C)CCCCCCCC [sT-8,8,8,3A]
Second: C=CC[N+](CCC[N+](C)(C)CCCCCCCCCC)(CCC[N+](C)(C)CCCCCCCCCC)CCC[N+](C)(C)CCCCCCCCCC [sT-10,10,10,3A]
The “MIC EF” value of the first is 32-fold higher: 16 µM for the first, 0.5 µM for the second.

Tested on: Escherichia coli (MC4100)
Test: Minimum inhibitory concentration (MIC)
Assay type: cell-based
Details: Table 6
Experimental: as §1, §2
as §2, with “trial.” for “trial. See Peng et al., 2011, Chem. Comm. 47:4896-4898.”

First: CCCCCCCC[N+](C)(C)CCCN(CCC[N+](C)(C)CCCCCCCC)CCC[N+](C)(C)CCCCCCCC [sT-8,8,8,0]
Second: CCCCCCCCCC[N+](C)(C)CCCN(CCC[N+](C)(C)CCCCCCCCCC)CCC[N+](C)(C)CCCCCCCCCC [sT-10,10,10,0]
The “MIC EC” value of the first is 32-fold higher: 32 µM for the first, 1 µM for the second.

Going from CCCCCCCC[N+](C)(C)CCC[N+](C)(CCC[N+](C)(C)CCCCCCCC)CCC[N+](C)(C)CCCCCCCC [sT-8,8,8,1] to CCCCCCCCCC[N+](C)(C)CCC[N+](C)(CCC[N+](C)(C)CCCCCCCCCC)CCC[N+](C)(C)CCCCCCCCCC [sT-10,10,10,1], the “MIC EC” value falls from 4 µM to 0.5 µM (8-fold).

First: C=CC[N+](CCC[N+](C)(C)CCCCCCCC)(CCC[N+](C)(C)CCCCCCCC)CCC[N+](C)(C)CCCCCCCC [sT-8,8,8,3A]
Second: C=CC[N+](CCC[N+](C)(C)CCCCCCCCCC)(CCC[N+](C)(C)CCCCCCCCCC)CCC[N+](C)(C)CCCCCCCCCC [sT-10,10,10,3A]
The “MIC EC” value of the first is 8-fold higher: 4 µM for the first, 0.5 µM for the second.

Tested on: Pseudomonas aeruginosa (PAO1)
Test: Minimum inhibitory concentration (MIC)
Assay type: cell-based
Details: Table 6
Experimental: as §1, §2
as §2, with “trial.” for “trial. See Peng et al., 2011, Chem. Comm. 47:4896-4898.”

Going from CCCCCCCC[N+](C)(C)CCCN(CCC[N+](C)(C)CCCCCCCC)CCC[N+](C)(C)CCCCCCCC [sT-8,8,8,0] to CCCCCCCCCC[N+](C)(C)CCCN(CCC[N+](C)(C)CCCCCCCCCC)CCC[N+](C)(C)CCCCCCCCCC [sT-10,10,10,0], the “MIC PA” value falls from 125 µM to 2 µM (62-fold).

Going from CCCCCCCC[N+](C)(C)CCC[N+](C)(CCC[N+](C)(C)CCCCCCCC)CCC[N+](C)(C)CCCCCCCC [sT-8,8,8,1] to CCCCCCCCCC[N+](C)(C)CCC[N+](C)(CCC[N+](C)(C)CCCCCCCCCC)CCC[N+](C)(C)CCCCCCCCCC [sT-10,10,10,1], the “MIC PA” value falls from 250 µM to 2 µM (120-fold).

Going from C=CC[N+](CCC[N+](C)(C)CCCCCCCC)(CCC[N+](C)(C)CCCCCCCC)CCC[N+](C)(C)CCCCCCCC [sT-8,8,8,3A] to C=CC[N+](CCC[N+](C)(C)CCCCCCCCCC)(CCC[N+](C)(C)CCCCCCCCCC)CCC[N+](C)(C)CCCCCCCCCC [sT-10,10,10,3A], the “MIC PA” value falls from 125 µM to 1 µM (120-fold).

Tested on: hospital-acquired methicillin-resistant Staphylococcus aureus HA-MRSA (ATCC 33591)
Test: Minimum inhibitory concentration (MIC)
Assay type: cell-based
Details: Table 6
Experimental: as §1, §2
as §2, with “trial.” for “trial. See Peng et al., 2011, Chem. Comm. 47:4896-4898.”

Compared with CCCCCCCC[N+](C)(C)CCCN(CCC[N+](C)(C)CCCCCCCC)CCC[N+](C)(C)CCCCCCCC [sT-8,8,8,0], CCCCCCCCCC[N+](C)(C)CCCN(CCC[N+](C)(C)CCCCCCCCCC)CCC[N+](C)(C)CCCCCCCCCC [sT-10,10,10,0] is 64-fold lower in “MIC HA-MRSA” value: 32 µM for the first, 0.5 µM for the second.

Going from CCCCCCCC[N+](C)(C)CCC[N+](C)(CCC[N+](C)(C)CCCCCCCC)CCC[N+](C)(C)CCCCCCCC [sT-8,8,8,1] to CCCCCCCCCC[N+](C)(C)CCC[N+](C)(CCC[N+](C)(C)CCCCCCCCCC)CCC[N+](C)(C)CCCCCCCCCC [sT-10,10,10,1], the “MIC HA-MRSA” value falls from 16 µM to 0.5 µM (32-fold).

Going from C=CC[N+](CCC[N+](C)(C)CCCCCCCC)(CCC[N+](C)(C)CCCCCCCC)CCC[N+](C)(C)CCCCCCCC [sT-8,8,8,3A] to C=CC[N+](CCC[N+](C)(C)CCCCCCCCCC)(CCC[N+](C)(C)CCCCCCCCCC)CCC[N+](C)(C)CCCCCCCCCC [sT-10,10,10,3A], the “MIC HA-MRSA” value falls from 8 µM to 0.5 µM (16-fold).
